In patent US20110130425A1, “Use of H3 Histaminergic Agonists for the Treatment of Addiction to Drugs of Abuse” (priority 2009, published 2011):

Experiments:
[1] = test system: morphine/heroin seeking behaviour; assay: Extinction and reinstatement of morphine/heroin seeking, mouse intravenous operant self-administration; assay type: in vivo, C57B16/J mice; settings: L-histidine 1 g/kg or 2 g/kg; mice
Description: L-Histidine solution: L-Histidine (Sigma, H-8000) at a 155.15 g/mol concentration in 0.34 M phosphoric acid is prepared as follows. 1.5 g L-histidine are dissolved in 12 ml of 0.34 M phosphoric acid to obtain a 0.8 M solution of L-histidine at approximately pH 6. pH is verified, and 0.1 g of NaCl added to a final concentration of 0.9%. Finally, the L-histidine solution is sterilized by filtration.
Animals: Male C57B16/J mice (Charles River, France) are housed individually in controlled laboratory conditions with the temperature maintained at 21±1° C., humidity at 55±10%, and light reversal cycle (light on at 20.00 h, light off at 08.00 h). Mice are tested during the dark phase of a light reversal cycle. Behavioural tests and animal care are conducted in accordance with the standard ethical guidelines (National Institutes of Health 1995; European Communities Directive 86/609 EEC) and the protocols are approved by the local ethical committee (CEEA-PRBB).
Apparatus: The self-administration experiments are conducted in mouse operant chambers (Model ENV-307A-CT, Medical Associates, Georgia, VT, USA). The experimental chambers are equipped with a house light, ventilator fan, drug infusion pump, liquid swivel with counterbalanced arm, and two manipulanda with cue lights that are located on either side of a food dipper. The manipulanda are holes (1.2 cm diameter).
The chambers are housed in sound- and light-attenuated boxes equipped with fans to provide ventilation and white noise. […]
The catheter tubing is inserted 1.3 cm into the right jugular vein and anchored with suture. […] The patency of intravenous catheters is evaluated periodically (approximately every 6 days). Patency is also evaluated whenever drug self-administration behavior appears to deviate dramatically from that observed previously. […]
L-Histidine dosage: The first L-histidine dose is 1 g/kg. […] Dosage for other H3 histaminergic agonists or H3 histaminergic agonist precursors is determined considering the pharmacokinetic and toxicological characteristics of the compound. […]

[2] = test system: alcohol-seeking responses (craving); assay: Cue-induced reinstatement of ethanol-seeking behavior; assay type: in vivo, rat; settings: L-histidine acute injection; rats
Description: The goal of this study is to evaluate the effects of a H3 histaminergic ligand, such as L-histidine, in a gold-standard model in the alcohol field. Namely, cue-induced reinstatement of alcohol-seeking behavior in order to measure alcohol-seeking responses (craving).
Priming and cue-induced reinstatement of ethanol-seeking behavior: Rats are trained to self-administer 10% (v/v) ethanol in a single 30 minute daily session on a Fixed Ratio 1 (FR 1) schedule. During the first three days of training, responses at the left lever are reinforced by delivery of 0.2% (w/v) saccharin solution. Following acquisition of saccharin-reinforced responding, rats are trained to self-administer ethanol. Thus, rats have access to 0.2% saccharin with 5% ethanol for one day, 5% ethanol for 1 day, 0.2% saccharin with 8% ethanol for 1 day, 8% ethanol for 1 day, 0.2% saccharin with 10% ethanol for 1 day, and 10% ethanol for 1 day. During all the training phase, responses at the right lever result in the delivery of a drop of water.
During the conditioning phase, animals are trained to discriminate the availability of ethanol (reward) vs. water (non-reward). This phase starts after completion of the saccharin-fading procedure. […] The 5 second period serves as “time-out” during which responses are recorded but not reinforced. […]

Structure (SMILES): N[C@@H](Cc1c[nH]cn1)C(=O)O [L-histidine]
- cue-induced reinstatement of morphine/heroine seeking [1]: decreases cue-induced reinstatement
- number of sessions required to achieve extinction criteria (morphine/heroin) [1]: shortens the number of sessions
- responding during the first extinction session (morphine/heroin) [1]: decreases or delays responding
- alcohol seeking (craving) induced by cues [2]: decreases alcohol seeking
